In the experiment the test system is Meloidogyne incognita. Nature of the experiment: Meloidogyne incognita test (sand, lettuce, gall formation). Type of experiment: in vivo. Conditions: Meloidogyne incognita, 336 h, 20 ppm, after 14 days; read-out: nematicidal efficacy (formation of galls). The method, boiled down: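 Vessels held sand, diluted compound solution, M. incognita egg/larvae suspension and lettuce seeds, and the plants grew for 14 days. Efficacy in % came from root gall formation: 100% means no galls, 0% means galls equal to the untreated control.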

With `O=C(NS(=O)(=O)c1ccc(Cl)cc1Cl)c1cn(-c2cc(Cl)cc(C(F)(F)F)c2)cn1` [I-309], the pest or weed control at 20 ppm was found to be 90%.

As to `CC(C)Sc1cccc(Cl)c1S(=O)(=O)NC(=O)c1cn(-c2cc(Cl)cc(Cl)c2)cn1` [I-398], the pest or weed control at 20 ppm was found to be 90%.

For `Cc1cc(C)cc(-n2cnc(C(=O)NS(=O)(=O)c3ccccc3Cl)c2)c1` [I-283], the pest or weed control at 20 ppm was found to be 90%.

For `COc1cccc(S(=O)(=O)NC(=O)c2ncn(-c3ccc(C(F)(F)F)cc3)c2Cl)c1` [I-425], the pest or weed control at 20 ppm was found to be 100%.

With `O=C(NS(=O)(=O)Cc1ccccc1)c1ncn(CC(F)(F)F)c1Cl` [I-029], the pest or weed control at 20 ppm came out at 70%.

For `Cc1ccccc1S(=O)(=O)NC(=O)c1nc(Cl)n(CCC(F)(F)F)c1Cl` [I-452], the pest or weed control at 20 ppm was found to be 100%.

For `O=C(NS(=O)(=O)c1ccccc1Cl)c1cn(-c2ccccc2OC(F)(F)F)cn1` [I-225], the pest or weed control at 20 ppm was 100%.

Regarding `Cc1nc(C(=O)NS(=O)(=O)C(C)C)cn1-c1cc(Cl)cc(Cl)c1` [I-409], the pest or weed control at 20 ppm amounted to 100%.

In the case of `COc1ccc(Cl)c(S(=O)(=O)NC(=O)c2cn(-c3cccc(Cl)c3Cl)cn2)c1` [I-246], the pest or weed control at 20 ppm turned out to be 100%.

For the compound `O=C(NS(=O)(=O)c1cccc(C(F)(F)F)c1)c1cn(CC(F)(F)F)cn1` [I-019], the pest or weed control at 20 ppm was 90%.

As for `Cc1nc(C(=O)NS(=O)(=O)c2c(Cl)cccc2SC(C)C)cn1-c1cc(Cl)cc(Cl)c1` [I-376], the pest or weed control at 20 ppm is 90%.

Turning to `Cc1nc(C(=O)NS(=O)(=O)c2cc(Cl)ccc2Cl)cn1-c1c(F)cccc1F` [I-365], the pest or weed control at 20 ppm turned out to be 100%.

For `O=C(NS(=O)(=O)c1ccccc1Cl)c1nc(Cl)n(-c2cc(Cl)cc(Cl)c2)c1Cl` [I-114], the pest or weed control at 20 ppm came out at 100%.

Consider `COc1ccc(Cl)c(S(=O)(=O)NC(=O)c2cn(-c3cccc(C(F)(F)F)c3)c(C)n2)c1` [I-275], for which the pest or weed control at 20 ppm came to 100%.

For the compound `COc1ccc(S(=O)(=O)NC(=O)c2ncn(CC(F)(F)C(F)(F)F)c2Cl)cc1` [I-076], the pest or weed control at 20 ppm worked out at 90%.

Regarding `COc1ccc(S(=O)(=O)NC(=O)c2ncn(CCC(C)C)c2Cl)cc1` [I-045], the pest or weed control at 20 ppm is 100%.

Take `Cc1ccccc1S(=O)(=O)NC(=O)c1nc(Cl)n(-c2cc(Cl)cc(Cl)c2)c1Cl` [I-115]: the pest or weed control at 20 ppm was 100%.

Regarding `COc1ccc(Cl)c(S(=O)(=O)NC(=O)c2cn(-c3cc(C(F)(F)F)cc(C(F)(F)F)c3)cn2)c1` [I-298], the pest or weed control at 20 ppm was found to be 90%.

Turning to `CCCCOc1ccc(S(=O)(=O)NC(=O)c2ncn(CCC(F)(F)F)c2Cl)cc1` [I-090], the pest or weed control at 20 ppm was determined as 90%.

As for `O=C(NS(=O)(=O)c1c(Cl)cccc1Cl)c1cn(-c2c(Cl)cccc2Cl)cn1` [I-245], the pest or weed control at 20 ppm worked out at 100%.

As for `COc1ccc(F)c(S(=O)(=O)NC(=O)c2cn(-c3cc(F)cc(F)c3)c(C)n2)c1` [I-371], the pest or weed control at 20 ppm is 90%.

Regarding `Cc1ccccc1S(=O)(=O)NC(=O)c1cn(C)c(SC(C)C)n1` [I-477], the pest or weed control at 20 ppm amounted to 90%.

As to `COc1ccc(Cl)c(S(=O)(=O)NC(=O)c2ncn(-c3ccccc3Cl)c2C(F)F)c1` [I-479], the pest or weed control at 20 ppm was found to be 90%.

Consider `COc1ccc(F)c(S(=O)(=O)NC(=O)c2cn(-c3cc(F)cc(C(F)(F)F)c3)cn2)c1` [I-352], for which the pest or weed control at 20 ppm was 100%.

As for `O=C(NS(=O)(=O)c1cccc(Cl)c1)c1ncn(C2CCCC2C(F)(F)F)c1Cl` (stereo not drawn) [I-065], the pest or weed control at 20 ppm was determined as 90%.

With `O=C(NS(=O)(=O)c1ccc(Cl)cc1)c1ncn(CCCCl)c1Cl` [I-052], the pest or weed control at 20 ppm worked out at 90%.

For `CC(C)Oc1ccc(Cl)c(S(=O)(=O)NC(=O)c2cn(-c3cc(F)cc(Cl)c3)cn2)c1` [I-341], the pest or weed control at 20 ppm is 100%.

Turning to `COc1ccc(Cl)c(S(=O)(=O)NC(=O)c2ncn(-c3cc(F)ccc3F)c2C(C)C)c1` [I-491], the pest or weed control at 20 ppm was determined as 100%.

Turning to `O=C(NS(=O)(=O)c1ccccc1)c1cn(-c2cc(Cl)cc(Cl)c2)cn1` [I-180], the pest or weed control at 20 ppm turned out to be 100%.

For the compound `COc1ccc(S(=O)(=O)NC(=O)c2nc(Cl)n(CCC(F)(F)F)c2Cl)cc1` [I-125], the pest or weed control at 20 ppm turned out to be 100%.

As for `O=C(NS(=O)(=O)c1cc(Cn2cccn2)ccc1Cl)c1cn(-c2cc(F)cc(Cl)c2)cn1` [I-343], the pest or weed control at 20 ppm is 90%.

For `COc1ccccc1S(=O)(=O)NC(=O)c1ncn(-c2ccc(C(F)(F)F)cc2)c1Cl` [I-424], the pest or weed control at 20 ppm was determined as 100%.

With `O=C(NS(=O)(=O)c1ccccc1)c1ncn(CCCCl)c1Cl` [I-049], the pest or weed control at 20 ppm was 90%.

Consider `O=C(NS(=O)(=O)c1cc(C(F)(F)F)ccc1Br)c1cn(-c2cc(Cl)cc(Cl)c2)cn1` [I-235], for which the pest or weed control at 20 ppm is 90%.

In the case of `COc1ccccc1S(=O)(=O)NC(=O)c1ncn(C2CCCC2C(F)(F)F)c1Cl` (stereo not drawn) [I-068], the pest or weed control at 20 ppm amounted to 90%.

Turning to `COc1ccc(Cl)c(S(=O)(=O)NC(=O)c2cc(-c3cccc(Cl)c3)n(C)n2)c1` [I-129], the pest or weed control at 20 ppm came to 90%.

Consider `COc1cc(OC)cc(S(=O)(=O)NC(=O)c2ncn(CCC(F)(F)F)c2Cl)c1` [I-087], for which the pest or weed control at 20 ppm came to 70%.

As to `COc1ccc(Cl)c(S(=O)(=O)NC(=O)c2cn(-c3ccc(C(F)(F)F)cc3Cl)cn2)c1` [I-219], the pest or weed control at 20 ppm turned out to be 90%.

Turning to `CCCn1cnc(C(=O)NS(=O)(=O)c2cccc(OC)c2)c1Cl` [I-043], the pest or weed control at 20 ppm is 100%.

As for `O=C(NS(=O)(=O)c1ccccc1)c1cn(-c2ccc(Cl)c(Cl)c2)cn1` [I-193], the pest or weed control at 20 ppm worked out at 100%.

For `Cc1nc(C(=O)NS(=O)(=O)c2ccccc2)cn1-c1ccccc1Cl` [I-270], the pest or weed control at 20 ppm is 90%.

Regarding `O=C(NS(=O)(=O)c1ccccc1Cl)c1cn(-c2cc(F)cc(F)c2Cl)cn1` [I-310], the pest or weed control at 20 ppm was determined as 100%.

Turning to `O=C(NS(=O)(=O)c1ccccc1Cl)c1ncn(CCC(F)(F)F)c1Br` [I-011], the pest or weed control at 20 ppm was 70%.

On to `COc1ccc(Cl)c(S(=O)(=O)NC(=O)c2ncn(-c3cc(F)ccc3F)c2C2CC2)c1` [I-490], for which the pest or weed control at 20 ppm worked out at 90%.

In the case of `CCOc1ccc(Cl)c(S(=O)(=O)NC(=O)c2cn(-c3cc(Cl)cc(Cl)c3)c(C)n2)c1` [I-319], the pest or weed control at 20 ppm was 100%.

Regarding `CSc1cccc(Cl)c1S(=O)(=O)NC(=O)c1nc(Cl)n(CCC(F)(F)F)c1Cl` [I-453], the pest or weed control at 20 ppm was 100%.

Take `O=C(NS(=O)(=O)c1ccc(Cl)cc1)c1ncn(C2CC2C(F)(F)F)c1Cl` (stereo not drawn) [I-062]: the pest or weed control at 20 ppm is 90%.

`O=C(NS(=O)(=O)c1cccc(Cl)c1)c1ncn(-c2ccc(C(F)(F)F)cc2)c1Cl` [I-422]: the pest or weed control at 20 ppm was determined as 100%.

For `O=C(NS(=O)(=O)c1cc(Cl)c(Cl)s1)c1ncn(CCC(F)(F)F)c1Cl` [I-086], the pest or weed control at 20 ppm turned out to be 70%.

Turning to `COc1ccccc1S(=O)(=O)NC(=O)c1ncn(CC(F)(F)C(F)(F)F)c1Cl` [I-081], the pest or weed control at 20 ppm worked out at 90%.

With `O=C(NS(=O)(=O)c1c(Cl)cccc1Cl)c1cn(Cc2ccccc2Cl)cn1` [I-157], the pest or weed control at 20 ppm was found to be 90%.

On to `O=C(NS(=O)(=O)c1ccccc1Cl)c1nc(Cl)n(CCC(F)(F)F)c1Cl` [I-124], for which the pest or weed control at 20 ppm worked out at 100%.

With `CC(C)Oc1ccc(Cl)c(S(=O)(=O)NC(=O)c2nc(Cl)n(CCC(F)(F)F)c2Cl)c1` [I-450], the pest or weed control at 20 ppm was 100%.

As to `CCOc1ccc(Cl)c(S(=O)(=O)NC(=O)c2nc(Cl)n(CCC(F)(F)F)c2Cl)c1` [I-449], the pest or weed control at 20 ppm came to 100%.

On to `Cc1nc(C(=O)NS(=O)(=O)c2c(F)cccc2NC(C)C)cn1-c1cc(F)cc(Cl)c1` [I-381], for which the pest or weed control at 20 ppm came out at 100%.

For `O=C(NS(=O)(=O)c1c(Cl)cccc1Cl)c1cn(-c2cccc(C(F)(F)F)c2)cn1` [I-177], the pest or weed control at 20 ppm came out at 100%.

In the case of `O=C(NS(=O)(=O)c1ccccc1)c1cn(Cc2ccccc2Cl)cn1` [I-155], the pest or weed control at 20 ppm was 100%.

`COc1ccc(Cl)c(S(=O)(=O)NC(=O)c2cn(-c3cc(Cl)c(Cl)c(Cl)c3)cn2)c1` [I-303]: the pest or weed control at 20 ppm is 90%.

For the compound `COc1ccc(F)c(S(=O)(=O)NC(=O)c2nc(Cl)n(CCC(F)(F)F)c2Cl)c1` [I-457], the pest or weed control at 20 ppm turned out to be 100%.

Regarding `O=C(NS(=O)(=O)c1c(Cl)cccc1Cl)c1nc(Cl)n(CCC(F)(F)F)c1Cl` [I-451], the pest or weed control at 20 ppm stood at 90%.

On to `O=C(NS(=O)(=O)c1cc(Cl)ccc1Cl)c1cn(Cc2ccccc2)cn1` [I-153], for which the pest or weed control at 20 ppm is 100%.

`COc1ccc(Cl)c(S(=O)(=O)NC(=O)c2ncn(-c3cccc(Cl)c3)c2C(F)F)c1` [I-480]: the pest or weed control at 20 ppm is 90%.

Take `COc1ccc(Cl)c(S(=O)(=O)NC(=O)c2cn(-c3ccccc3F)c(C)n2)c1` [I-260]: the pest or weed control at 20 ppm came to 70%.

Regarding `COc1cccc(S(=O)(=O)NC(=O)c2ncn(-c3ccc(Cl)cc3)c2Cl)c1` [I-419], the pest or weed control at 20 ppm amounted to 100%.

As for `O=C(NS(=O)(=O)c1c(Cl)cccc1Cl)c1cn(-c2cc(F)cc(Cl)c2)cn1` [I-241], the pest or weed control at 20 ppm stood at 90%.

On to `O=C(NS(=O)(=O)c1ccccc1)c1ncn(CC(F)(F)C(F)(F)F)c1Cl` [I-077], for which the pest or weed control at 20 ppm was found to be 100%.

As to `O=C(NS(=O)(=O)c1ccccc1)c1cn(Cc2ccccc2)cn1` [I-152], the pest or weed control at 20 ppm was 100%.

In the case of `Cn1cc(C(=O)NS(=O)(=O)c2ccccc2Cl)nc1Cc1cccc(Cl)c1` [I-119], the pest or weed control at 20 ppm was found to be 90%.

Turning to `CCOc1ccc(Cl)c(S(=O)(=O)NC(=O)c2cn(-c3cc(F)cc(Cl)c3)cn2)c1` [I-340], the pest or weed control at 20 ppm was 100%.

For `O=C(NS(=O)(=O)c1ccccc1)c1ncn(CCOC(F)(F)F)c1Cl` [I-054], the pest or weed control at 20 ppm was 90%.

Turning to `O=C(NS(=O)(=O)c1c(F)cccc1F)c1cn(-c2ccccc2OC(F)(F)F)cn1` [I-224], the pest or weed control at 20 ppm turned out to be 90%.

For `Cc1nc(C(=O)NS(=O)(=O)c2c(Cl)cccc2Cl)cn1-c1cc(F)cc(Cl)c1` [I-322], the pest or weed control at 20 ppm came to 100%.

The record behind these values is US10820591B2, “Substituted sulfonyl amides for controlling animal pests” (Bayer Aktiengesellschaft, priority 2016, dated 2020).
